Assay results published in patent US12458025B2 (priority 2020, dated 2025).
Read-outs that look alike come from different tables or passages of the source.

Legend:
[1] = system: Candidatus Liberibacter solanacearum (CLso); format: cell-based; details: re-test, five biological replicates, 72 h; tetracycline 250 ppm
[2] = system: Candidatus Liberibacter asiaticus (CLas); format: cell-based; details: 25 μM, 72 h; tetracycline 500 ppm
[3] = system: Candidatus Liberibacter solanacearum (CLso); format: in vivo, potato (Solanum tuberosum L. var. Atlantic); details: foliar spray 10 and 25 μM twice a week, 28 dpi; for CLso titers by qPCR: vs untreated controls; for disease symptoms (chlorosis, necrosis, leaf curling and wilting): vs untreated plants
[4] = system: Clavibacter michiganensis (Gram positive); experiment: Bacterial culture growth inhibition, cell density (OD: 600); format: cell-based; details: for cell density (OD: 600): untreated 1.61
[5] = system: Pseudomonas syringae (Gram negative); experiment: as above; format: cell-based; details: 24 h; for growth inhibition significance vs untreated (asterisks): N=4; for cell density (OD: 600): untreated 1.82
Protocol: These compounds were also tested against other phytobacteria. The respective bacterial cultures were grown in the presence of multiple concentrations of a compound (μM) for 24 h, followed by cell density measurements (OD: 600). […]

[6] = system: Agrobacterium tumefaciens (Gram negative); experiment: as above; format: cell-based; details: for cell density (OD: 600) / growth inhibition significance vs untreated (asterisks): 24 h; for cell density (OD: 600): untreated 1.12; for growth inhibition significance vs untreated (asterisks): N=4
[7] = cited from earlier work
[8] = system: bacteria, fungi, and the superbug MRSA; details: agar patch studies; cited from earlier work

Row | SMILES | inhibition of CLso (FIG. 1b) [1] | inhibition of CLas (FIG. 1c) [2] | CLso titers by qPCR [3] | disease symptoms (chlorosis, necrosis, leaf curling and wilting) [3] | cell density (OD: 600) ([4]; 5 μM, 24 h) | cell density (OD: 600) ([4]; 10 μM, 24 h) | cell density (OD: 600) ([4]; 20 μM, 24 h) | cell density (OD: 600) ([4]; 50 μM, 24 h) | growth inhibition significance vs untreated (asterisks) ([5]; 5 μM) | cell density (OD: 600) ([5]; 5 μM) | growth inhibition significance vs untreated (asterisks) ([5]; 10 μM) | cell density (OD: 600) ([5]; 10 μM) | cell density (OD: 600) ([5]; 20 μM) | growth inhibition significance vs untreated (asterisks) ([5]; 50 μM) | cell density (OD: 600) ([5]; 50 μM) | cell density (OD: 600) ([6]; 5 μM) | cell density (OD: 600) ([6]; 10 μM) | cell density (OD: 600) ([6]; 20 μM) | cell density (OD: 600) ([6]; 50 μM) | growth inhibition significance vs untreated (asterisks) ([5]; 20 μM) | other results
1 | COc1ccc(C2COc3c(ccc(O)c3OC)C2)c(OC)c1O (single isomer, unassigned; (-)) [Duartin (−), (−)-duartin] | inhibited | inhibited | lowered CLso titers | clearly lower level of disease symptoms | 1.66 | 1.61 | 1.65 | 1.62 | ** (highly effective, **P≤0.001) | 1.77 | ** (highly effective, **P≤0.001) | 1.78 | 1.79 | ** (highly effective, **P≤0.001) | 1.76 | 1.10 | 1.11 | 1.10 | 1.09 |  | 
2 | Cl.NCCCCCC(=O)O [Aminocaproic acid hydrochloride, 6-aminohexanoic acid] |  |  |  |  | 1.64 | 1.64 | 1.66 | 1.59 |  | 1.80 |  | 1.81 | 1.80 | * (effective, *P≤0.05) | 1.78 | 1.17 | 1.16 | 1.10 | 1.11 |  | solubility ([7]; in chloroform): practically insoluble; solubility ([7]; in methanol): sparingly soluble; solubility ([7]; in water, acid, and alkaline solutions): soluble
3 | CN(C)CCOC(c1ccc(Cl)cc1)c1ccccn1.O=C(O)/C=C\C(=O)O (stereo not drawn) [Carbinoxamine maleate] |  |  |  |  | 1.68 | 1.63 | 1.58 | 1.59 |  | 1.81 |  | 1.81 | 1.81 | * (effective, *P≤0.05) | 1.77 | 1.10 | 1.08 | 1.14 | 1.20 |  | 
4 | Cc1cc(O)cc(C)c1Cl [Chloroxylenol, 4-chloro-3,5-dimethylphenol] | inhibited | inhibited | lowered CLso titers | clearly lower level of disease symptoms | 1.59 | 1.56 | 1.52 | 1.38 |  | 1.82 |  | 1.81 | 1.76 | ** (highly effective, **P≤0.001) | 1.30 | 1.12 | 1.06 | 0.99 | 0.92 | ** (highly effective, **P≤0.001) | effective against Clavibacter michiganensis [4]: effective; growth inhibition significance vs untreated (asterisks) ([4]; 50 μM, 24 h, N=4): ** (highly effective, **P≤0.001); effective against Agrobacterium tumefaciens [6]: effective; growth inhibition significance vs untreated (asterisks) ([6]; 50 μM): * (effective, *P≤0.05); time to kill a wide variety of microbes [8]: ≤ 15 s
5 | CCCNC(=O)NS(=O)(=O)c1ccc(Cl)cc1 [Chlorpropamide] |  |  |  |  | 1.67 | 1.65 | 1.63 | 1.56 | ** (highly effective, **P≤0.001) | 1.77 | * (effective, *P≤0.05) | 1.78 | 1.76 | * (effective, *P≤0.05) | 1.77 | 1.14 | 1.14 | 1.17 | 1.16 | ** (highly effective, **P≤0.001) | effective against Clavibacter michiganensis [4]: effective; effective against Agrobacterium tumefaciens [6]: effective
6 | CCn1nc(C(=O)O)c(=O)c2cc3c(cc21)OCO3 [Cinoxacin, 1-ethyl-1,4-dihydro-4-oxo-[1,3] dioxolo [4,5-g] cinnoline-3-carboxylic acid] |  |  |  |  | 1.63 | 1.64 | 1.59 | 1.57 | * (effective, *P≤0.05) | 1.77 | * (effective, *P≤0.05) | 1.76 | 1.72 | ** (highly effective, **P≤0.001) | 1.76 | 1.17 | 1.11 | 1.13 | 0.94 | ** (highly effective, **P≤0.001) | effective against Agrobacterium tumefaciens [6]: effective; growth inhibition significance vs untreated (asterisks) ([6]; 50 μM): * (effective, *P≤0.05)
7 | CN(C)CCOC(=O)C(c1ccccc1)C1(O)CCCC1.Cl (stereo not drawn) [Cyclopentolate hydrochloride] | inhibited | inhibited | lowered CLso titers | clearly lower level of disease symptoms | 1.64 | 1.60 | 1.59 | 1.62 | * (effective, *P≤0.05) | 1.78 |  | 1.79 | 1.77 | ** (highly effective, **P≤0.001) | 1.73 | 1.08 | 1.11 | 1.11 | 1.12 | * (effective, *P≤0.05) | 
